One data set addresses human BACE1 (Homo sapiens, UniProt P56817). The data set is described as follows: BACE1 fluorescent kinetic assay (cleavage of peptide substrate WABC-6). The following applies: 5 μM inhibitor; 10 nM enzyme, 25 μM substrate, pH 4.5, room temperature; read-out: BACE-1 % Inhibition at 5 μM. The format is biochemical. As to the method:
Evaluation of BACE1 Binding Affinity of Test Compounds
Fluorescent Kinetic Assays
Final Assay Conditions: 10 nM human BACE1 (or 10 nM Murine BACE1, 1.5 nM human BACE2), 25 μM substrate (WABC-6, MW 1549.6, from AnaSpec), Buffer: 50 mM Na-Acetate, pH 4.5, 0.05% CHAPS, 25% PBS, room temperature. Na-Acetate was from Aldrich, Cat.# 24, 124-5, CHAPS was from Research Organics, Cat. # 1304C 1×, PBS was from Mediatech (Cellgro), Cat# 21-031-CV, peptide substrate AbzSEVNLDAEFRDpa was from AnaSpec, Peptide Name: WABC-6
Determination of stock substrate (AbzSEVNLDAEFRDpa) concentration: ˜25 mM stock solution is made in DMSO using the peptide weight and MW, and diluted to ˜25 μM (1:1000) in 1×PBS. Concentration is determined by absorbance at 354 nm using an extinction coefficient ε of 18172 M^−1cm^−1, the concentration of stock substrate is corrected, and the substrate stock stored in small aliquots in −80° C. [Substrate Stock]=ABS^354 nm*10^6/18172 (in […]) The extinction coefficient ε^354 nm was adapted from TACE peptide substrate, which had the same quencher-fluorophore pair. Determination of Stock Enzyme Concentration: the stock concentration of each enzyme is determined by absorbance at 280 nm using an ε of 64150 M^−1cm^−1 for hBACE1 and MuBACE1, 62870 M^−1cm^−1 for hBACE2 in 6 M Guanidinium Hydrochloride (from Research Organics, Cat. # 5134G-2), pH ˜6. The extinction coefficient ε^280 nm for each enzyme was calculated based on known amino acid composition and published extinction coefficients for Trp ([…]) and Tyr ([…]) residues (Anal. Biochem. 182, 319-326). Dilution and mixing steps: total reaction volume: 100 μL
2× inhibitor dilutions in buffer A (66.7 mM Na-Acetate, pH 4.5, 0.0667% CHAPS) were prepared,
4× enzyme dilution in buffer A (66.7 mM Na-Acetate, pH 4.5, 0.0667% CHAPS) were prepared,
100 μM substrate dilution in 1×PBS was prepared, and
50 μL 2× Inhibitor, 25 μL 100 μM substrate are added to each well of 96-well plate (from DYNEX Technologies, VWR #: 11311-046), immediately followed by 25 μL 4× enzyme (added to the inhibitor and substrate mix), and the fluorescence readings are initiated.
Fluorescence Readings: Readings at λex 320 nm and λem 420 nm are taken every 40 sec for 30 min at room temperature and the linear slope for substrate cleavage rate (vi) determined.
Calculation of % Inhibition: % Inhibition=100*(1−vi/v0) vi: substrate cleavage rate in the presence of inhibitor v0: substrate cleavage rate in the absence of inhibitor IC50 Determination: % Inhibition=((B*IC50^n)+(100*I0^n))/(IC50^n+I0^n) (Model # 39 from LSW Tool Bar in Excel where B is the % inhibition from the enzyme control, which should be close to 0.) % Inhibition is plotted vs. Inhibitor Concentration (I0) and the data fit to the above equation to obtain IC50 value and Hill number (n) for each compound. Testing at least 10 different inhibitor concentrations is preferred.

human BACE1, sequence (P56817 46-501): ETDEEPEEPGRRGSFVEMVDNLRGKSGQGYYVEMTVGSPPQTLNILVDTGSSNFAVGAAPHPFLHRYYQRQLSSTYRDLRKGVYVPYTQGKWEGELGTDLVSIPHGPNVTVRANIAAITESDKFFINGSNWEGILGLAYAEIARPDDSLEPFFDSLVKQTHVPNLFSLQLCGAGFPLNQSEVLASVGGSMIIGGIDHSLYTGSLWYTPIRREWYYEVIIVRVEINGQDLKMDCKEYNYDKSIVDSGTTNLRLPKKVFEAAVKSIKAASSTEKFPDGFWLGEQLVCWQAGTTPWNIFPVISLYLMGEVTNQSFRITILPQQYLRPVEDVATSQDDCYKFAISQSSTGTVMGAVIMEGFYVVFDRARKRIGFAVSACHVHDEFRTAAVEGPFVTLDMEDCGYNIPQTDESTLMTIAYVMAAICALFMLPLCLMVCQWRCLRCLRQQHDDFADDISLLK

As a reminder, the inhibition is the drop in the measured response relative to a control, in per cent. On to `N#CCCCOc1ccc2cc(-c3ccccc3Cl)n(Cc3cccc(N)n3)c2c1` [Example 8, 4-{[1-[(6-aminopyridin-2-yl)methyl]-2-(2-chlorophenyl)-1H-indol-6-yl]oxy}butanenitrile], for which the inhibition at 5 µM on human BACE1 was 79%.

In general, melting point refers to the temperature, or range, at which the solid turns liquid. `Nc1cccc(Cn2c(-c3ccccc3Cl)cc3ccc(OCc4ccccc4)cc32)n1` [Example 9, 6-{[6-(benzyloxy)-2-(2-chlorophenyl)-1H-indol-1-yl]methyl}pyridin-2-amine] yielded a melting point of 64 to 66 °C. On human BACE1, the inhibition at 5 µM was 31.6%.

The compound `N#Cc1cccc(COc2ccc3cc(-c4ccccc4Cl)n(Cc4cccc(N)n4)c3c2)c1` [Example 10, 3-({[1-[(6-aminopyridin-2-yl)methyl]-2-(2-chlorophenyl)-1H-indol-6-yl]oxy}methyl)benzonitrile] had a melting point of 65 to 67 °C. For the same compound, the inhibition at 5 µM on human BACE1 worked out at 58%.

As for `Nc1cccc(Cn2c(-c3ccccc3Cl)cc3ccc(OCc4cccc(F)c4)cc32)n1` [Example 11, 6-({2-(2-chlorophenyl)-6-[(3-fluorobenzyl)oxy]-1H-indol-1-yl}methyl)pyridin-2-amine], the melting point lay within 60 to 64 °C. For the same compound, on human BACE1, the inhibition at 5 µM was 49.5%.

Regarding `Nc1cccc(Cn2c(-c3ccccc3Cl)cc3ccc(OCc4cc(F)ccc4F)cc32)n1` [Example 12, 6-({2-(2-chlorophenyl)-6-[(2,5-difluorobenzyl)oxy]-1H-indol-1-yl}methyl)pyridin-2-amine], the melting point is 65 to 68 °C. Further, the inhibition at 5 µM on human BACE1 is 33.2%.

`Nc1cccc(Cn2c(-c3ccccc3Cl)cc3ccc(OCc4cccc(C(F)(F)F)c4)cc32)n1` [Example 13, 6-[(2-(2-chlorophenyl)-6-{[3-(trifluoromethyl)benzyl]oxy}-1H-indol-1-yl)methyl]pyridin-2-amine] yielded a melting point of 60 to 62 °C. The inhibition at 5 µM at human BACE1 stood at 13.8%.

`COc1cccc(COc2ccc3cc(-c4ccccc4Cl)n(Cc4cccc(N)n4)c3c2)c1` [Example 14, 6-({2-(2-chlorophenyl)-6-[(3-methoxybenzyl)oxy]-1H-indol-1-yl}methyl)pyridin-2-amine] registered a melting point of 67 to 69 °C. Besides, the inhibition at 5 µM at human BACE1 was 36.3%.

`CCCOc1ccc2cc(-c3ccccc3Cl)n(Cc3cccc(N)n3)c2c1` [Example 15, 6-{[2-(2-chlorophenyl)-6-propoxy-1H-indol-1-yl]methyl}pyridin-2-amine] registered a melting point of 128 to 130 °C. In addition, on human BACE1, the inhibition at 5 µM was determined as 38.6%.

For the compound `COc1ccc2cc(-c3ccccc3Cl)n(Cc3cccc(N)n3)c2c1` [Example 16, 6-{[2-(2-chlorophenyl)-6-methoxy-1H-indol-1-yl]methyl}pyridin-2-amine], the melting point lay in the range of 174 to 176 °C. The inhibition at 5 µM at human BACE1 was 30.1%.

`Nc1cccc(Cn2c(-c3ccccc3Cl)cc3ccc(Oc4cncnc4)cc32)n1` [Example 17, 6-{[2-(2-chlorophenyl)-6-(pyrimidin-5-yloxy)-1H-indol-1-yl]methyl}pyridin-2-amine]: the melting point lay within 115 to 117 °C. At human BACE1, the inhibition at 5 µM was 39.8%.

For the compound `Nc1cccc(Cn2c(-c3ccccc3Cl)cc3ccc(Br)cc32)n1` [Example 19, 6-{[6-Bromo-2-(2-chlorophenyl)-1H-indol-1-yl]methyl}pyridin-2-amine], the melting point fell in the range of 189 to 191 °C. The inhibition at 5 µM at human BACE1 is 31.7%.

Take `Nc1cccc(Cn2c(-c3ccccc3Cl)cc3ccc(C#CCCO)cc32)n1` [Example 20, 4-{1-[(6-Aminopyridin-2-yl)methyl]-2-(2-chlorophenyl)-1H-indol-6-yl}but-3-yn-1-ol]: the inhibition at 5 µM at human BACE1 is 67.5%.

For the compound `Nc1cccc(Cn2c(-c3ccccc3Cl)cc3ccc(C#CCCF)cc32)n1` [Example 21, 6-{[6-(4-fluorobutyn-1-yl)-2-(2-chlorophenyl)-1H-indol-1-yl]methyl}pyridin-2-amine], the inhibition at 5 µM on human BACE1 is 56.6%.

For `Nc1cccc(Cn2c(-c3ccccc3Cl)cc3ccc(C#CCCCO)cc32)n1` [Example 22, 5-{1-[(6-Aminopyridin-2-yl)methyl]-2-(2-chlorophenyl)-1H-indol-6-yl}pent-4-yn-1-ol], on human BACE1, the inhibition at 5 µM worked out at 71.2%.

Consider `Nc1cccc(Cn2c(-c3ccccc3Cl)cc3ccc(C#CCCCCO)cc32)n1` [Example 23, 6-{1-[(6-Aminopyridin-2-yl)methyl]-2-(2-chlorophenyl)-1H-indol-6-yl}hex-5-yn-1-ol], for which the inhibition at 5 µM at human BACE1 was found to be 81.1%.

Turning to `Nc1cccc(Cn2c(-c3ccccc3Cl)cc3ccc(CCCCO)cc32)n1` [Example 24, 4-[1-(6-Aminopyridin-2-ylmethyl)-2-(2-chlorophenyl)-1H-indol-6-yl]butan-1-ol], the inhibition at 5 µM at human BACE1 stood at 71.8%.

Regarding `Nc1cccc(Cn2c(-c3ccccc3Cl)cc3ccc(CCCCCO)cc32)n1` [Example 25, 5-[1-(6-Aminopyridin-2-ylmethyl)-2-(2-chlorophenyl)-1H-indol-6-yl]pentan-1-ol], at human BACE1, the inhibition at 5 µM amounted to 77.3%.

As to `Nc1cccc(Cn2c(-c3ccccc3Cl)cc3ccc(CCCCCCO)cc32)n1` [Example 26, 6-[1-(6-Aminopyridin-2-ylmethyl)-2-(2-chlorophenyl)-1H-indol-6-yl]hexan-1-ol], the inhibition at 5 µM at human BACE1 is 107%.

With `COCCC#Cc1ccc2cc(-c3ccccc3Cl)n(Cc3cccc(N)n3)c2c1` [Example 27, 6-{[2-(2-Chlorophenyl)-6-(4-methoxybut-1-yn-1-yl)-1H-indol-1-yl]methyl}pyridin-2-amine], the inhibition at 5 µM on human BACE1 amounted to 51%.

As to `COCCCC#Cc1ccc2cc(-c3ccccc3Cl)n(Cc3cccc(N)n3)c2c1` [Example 28, 6-{[2-(2-Chlorophenyl)-6-(5-methoxypent-1-yn-1-yl)-1H-indol-1-yl]methyl}pyridin-2-amine], the inhibition at 5 µM on human BACE1 was 53%.

Consider `Nc1cccc(Cn2c(-c3ccccc3)cc3ccccc32)n1` [Example 30], for which the melting point fell in the range of 45 to 47 °C. In addition, the inhibition at 5 µM at human BACE1 amounted to 24.6%.

On to `Nc1cccc(Cn2c(-c3ccccc3Cl)cc3ccc(C#CCCCF)cc32)n1` [Example 31, 6-{[2-(2-chlorophenyl)-6-(5-fluoropent-1-yn-1-yl)-1H-indol-1-yl]methyl}pyridin-2-amine], for which the inhibition at 5 µM at human BACE1 worked out at 64.6%.

As to `Nc1cccc(Cn2c(-c3ccccc3Cl)cc3ccc(C#CCCCCF)cc32)n1` [Example 32, 6-{[2-(2-chlorophenyl)-6-(6-fluorohex-1-yn-1-yl)-1H-indol-1-yl]methyl}pyridin-2-amine], the inhibition at 5 µM on human BACE1 worked out at 53.4%.
